ChEMBL document CHEMBL1131502, “Thiol-induced nitric oxide release from 3-halogeno-3,4-dihydrodiazete 1,2-dioxides” (J Med Chem, 1998)

Experiments:
[1] = apparent rate constant value of the compound; type: ADME
[2] = The compound was tested for the concentration to reduce the viability of bovine aortic endothelial cell by 50% within 24 hr after compound addition.; type: functional, cell-based; details: Bos taurus
[3] = species: Homo sapiens; assay: The compound was tested for half-maximum inhibition of platelet aggregation; type: functional

| SMILES | rate constant app [1] [M⁻¹ s⁻¹] | IC50 [2] [mM] | IC50 [3] [µM] |
| --- | --- | --- | --- |
| CC12CCCCC1(Cl)[N+]([O-])=[N+]2[O-] (stereo not drawn) | 0.0033 | > 6 | – |
| CC12CCCCC1(Br)[N+]([O-])=[N+]2[O-] (stereo not drawn) | 0.072 | 0.23 | 1 |
| CC1(C)[N+]([O-])=[N+]([O-])C1(C)Br (stereo not drawn) | 0.052 | 1.4 | 10 |
